What was measured:
[1] = target: T1, menin / FITC-MBM1 peptide (Menin/MLL) (Homo sapiens, UniProt O00255); assay: Menin/MLL fluorescence polarization (FP) assay; type: binding; details: read-out: (1) Menin FP assay (IC50 (μM))
T1 sequence (O00255 1-610): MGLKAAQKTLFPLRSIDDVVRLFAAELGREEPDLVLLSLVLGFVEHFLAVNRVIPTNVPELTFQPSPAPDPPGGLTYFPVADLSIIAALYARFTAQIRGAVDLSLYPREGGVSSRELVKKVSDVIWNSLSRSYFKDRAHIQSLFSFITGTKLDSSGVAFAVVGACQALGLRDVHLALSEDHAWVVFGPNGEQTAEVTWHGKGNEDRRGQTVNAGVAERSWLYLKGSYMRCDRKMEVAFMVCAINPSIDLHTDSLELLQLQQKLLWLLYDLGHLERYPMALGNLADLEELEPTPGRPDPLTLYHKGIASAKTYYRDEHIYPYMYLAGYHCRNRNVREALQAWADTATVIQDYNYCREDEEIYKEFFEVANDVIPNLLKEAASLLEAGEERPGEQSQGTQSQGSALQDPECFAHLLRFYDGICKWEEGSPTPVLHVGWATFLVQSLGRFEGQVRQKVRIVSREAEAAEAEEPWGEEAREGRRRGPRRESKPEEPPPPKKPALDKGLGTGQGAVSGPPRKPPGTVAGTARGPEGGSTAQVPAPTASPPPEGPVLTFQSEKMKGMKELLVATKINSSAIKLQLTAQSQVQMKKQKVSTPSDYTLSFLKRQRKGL
Method: Pharmacological Part 1) Menin/MLL Fluorescence Polarization Assay
To a non-surface binding, black 384-well microtiter plate was added 50 nL 160× test compound in DMSO and 4 μL 2× menin in assay buffer (40 mM TrisHCl, pH 7.5, 50 mM NaCl, 1 mM DTT and 0.001% Tween 20). After incubation of test compound and menin for 10 min at ambient temperature, 4 μL 2×FITC-MBM1 peptide (FITC-β-alanine-SARWRPPARPGT-NH2) in assay buffer was added, the microtiter plate centrifuged at 1000 rpm for 1 min and the assay mixtures incubated for 15 min at ambient temperature. The relative amount of menin -FITC-MBM1 complex present in an assay mixture is determined by measuring the fluorescence polarization (FP) of the FITC label with a BMG Pherastar plate reader (ex. 485 nm/em. 520 nm) at ambient temperature. The final concentrations of reagents in the binding assay are 100 nM menin, 5 nM FITC-MBM1 peptide and 0.625%>DMSO in assay buffer. Dose-response titrations of test compounds are conducted using an 11 point, three-fold serial dilution scheme, starting at 31 μM.
Compound potencies were determined by first calculating % inhibition at each compound concentration according to equation 1: % inhibition=((HC−LC)−(FPcompound−LC))/(HC−LC))*100 (Eqn 1)
Where LC and HC are the FP values of the assay in the presence or absence of a saturating concentration of a compound that competes with FITC-MBM1 for binding to menin, and FP^compound is the measured FP value in the presence of the test compound. HC and LC FP values represent an average of at least 16 replicates per plate.
Where Bottom and Top are the lower and upper asymptotes of the dose-response curve, respectively, IC50 is the concentration of compound that yields 50% inhibition of signal and h is the Hill coefficient.

[2] = target: T2, terbium chelate-labeled menin / FITC-MBM1 peptide (Menin/MLL) (Homo sapiens, UniProt O00255, T541A); assay: Menin/MLL homogenous time-resolved fluorescence (HTRF) assay; type: binding; details: read-out: (2) Menin HTRF assay (IC50 (nM))
T2 construct: Menin (a. a. l-610-6×his tag) was labeled with terbium cryptate as follows
T2 sequence (O00255 with tags, fused parts or gaps T541A): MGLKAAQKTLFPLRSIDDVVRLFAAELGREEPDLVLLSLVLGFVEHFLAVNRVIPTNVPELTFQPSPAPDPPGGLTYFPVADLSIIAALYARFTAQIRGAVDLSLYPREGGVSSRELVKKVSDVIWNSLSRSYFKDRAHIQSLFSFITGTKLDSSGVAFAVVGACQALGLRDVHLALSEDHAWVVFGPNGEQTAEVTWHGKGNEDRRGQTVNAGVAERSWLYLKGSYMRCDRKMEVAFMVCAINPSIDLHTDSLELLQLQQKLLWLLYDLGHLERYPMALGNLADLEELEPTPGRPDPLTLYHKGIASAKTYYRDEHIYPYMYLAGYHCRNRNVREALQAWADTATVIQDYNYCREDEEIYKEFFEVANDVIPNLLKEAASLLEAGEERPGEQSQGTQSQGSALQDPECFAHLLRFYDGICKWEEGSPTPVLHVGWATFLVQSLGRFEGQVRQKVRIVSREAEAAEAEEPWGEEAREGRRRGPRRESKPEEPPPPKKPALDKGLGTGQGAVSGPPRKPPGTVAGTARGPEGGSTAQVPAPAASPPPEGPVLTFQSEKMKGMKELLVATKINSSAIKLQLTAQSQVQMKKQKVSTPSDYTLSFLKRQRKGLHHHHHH
Summary of the method: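 Terbium cryptate-labeled menin (aa 1-610, 6×His), 100 pM, preincubated 5 min with compound, then 75 nM FITC-MBM1 peptide added for 15 min at ambient temperature. Buffer: 40 mM Tris pH 7.5, 50 mM NaCl, 1 mM DTT, 0.05% Pluronic F-127, 0.5% DMSO. HTRF 520/490 ratio; 11-point threefold titration from 25 μM, IC50 from % inhibition curve.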

FC(F)CN[C@@H]1CCCN(c2ncnc3sc(CC(F)(F)F)cc23)CC1 [Compound 5a]
IC50 [1]: 6.15 µM | IC50 [2]: 8290 nM

FC(F)CN[C@@H]1CCCN(c2ncnc3sc(CC(F)(F)F)cc23)CC1 [Compound 5]
IC50 [1]: 6.36 µM | IC50 [2]: 9530 nM

From patent publication US11530226B2, “Azepane inhibitors of menin-MLL interaction” (Janssen Pharmaceutica NV, priority 2016, dated 2022)
